Measured values taken from US20100015243A1, “METHOD FOR PREPARING MATERIALS HAVING ANTITHROMBOTIC ACTIVITY FROM MUSKRAT MUSK AND MATERIALS OBTAINED FROM THE METHOD” (priority 2006, published 2010).

Tested on: Thrombin
Assay: Thrombin time measurement (antithrombotic activity) with Thrombitimer2
Assay type: biochemical
Conditions: per 0.1 mg of asprin; time until fibrinogen clots are formed; FIG. 8
Procedure: As for the 4th step, a thrombin time of the divided groups in the 3rd step are measured and the group showing the highest antithrombotic activity is selected. The thrombin time is, but not limited to, a time until fibrinogen clots are formed. For example, with Thrombitimer2 (Behnk Elektronik, Germany), after adding Thrombin (T46481KU-59NIH unit/mg) and fibrinogen, the time until fibrinogen clots are formed is counted.
The activity was measured by counting a thrombin time according to the method described in Choi et al., Kor. J. Pharmacogn. 26, 154-158, 1995 and Son et al., Kor. J. Pharmacogn. 34 (1):52-61, 2004.
Specifically, the thrombin time was measured with Thrombitimer2 (Behnk Elektronik, Germany) wherein a fixed concentration of specimen was dissolved in 10 ? of dimethylsulfoxide (DMSO), the solution was added to a tube with 50 ? of borate buffer (pH7.8), Thrombin 1 unit/50 ? (T46481KU-59NIH unit/mg solid, Sigma Co., USA) was mixed with the solution, the mixture was warmed at 37° C. for 5 minutes, 200 ? of fibrinogen (0.33%, Sigma Co., USA) was added to it, and the time until coaggulation occurs was counted. […]
Antithrombotic activity was measured by counting a thrombin time and the result is an average of at least 3 experiments.

`CC(=O)Oc1ccccc1C(=O)O` [asprin] gave a thrombin time of 15 s.
